Here are results for six molecules from US20260297060A1, “COMPOUNDS FOR THE DEGRADATION OF MUTANT BRAF” (C4 THERAPEUTICS, INC., priority 2023, published 2026).

Where two headings read alike, the source gives them in different places.

One experiment concerns A375-NRAS^Q61K cells. Description: CTGlo Cell Viability Assay, A375-NRAS^Q61K (A375.11) cells, 96 hours. The following applies: A375.11 (A375-NRAS^Q61K) cells; for Emax / CTGlo A375.11 96 hours Emax: lowest % viability achieved. It is filed as cell-based, human. The procedure, abridged: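 A375 cells carrying BRAF V600E and NRAS Q61K were seeded at 250 cells/well with a 10-point half-log dose series (max 10 μM final). After 96 h at 37 °C, viability was read as ATP luminescence (CellTiter-Glo), background-subtracted and normalized to DMSO (100%). GI50 from 4-parameter fit; Emax is the lowest % viability.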

A further experiment has as its target T1, BRAF V600E (Homo sapiens, UniProt P15056+Q96SW2, V600E).
T1 construct: knock-in of the HiBiT tag to the endogenous BRAF V600E locus; host or cells: A375.10 (A375 clonal line, CRISPR HiBiT knock-in at the endogenous BRAF V600E locus)
Briefly: BRAF V600E HiBiT Degradation Assay. It is filed as cell-based. The following applies: for Emax: read-out: HiBiT-Degradation A375.10 BRAF 2 hours Emax. The procedure, abridged:
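Endogenous HiBiT knock-in on BRAF V600E in A375 cells (clone A375.10); 11-point half-log series, top 10 μM, 2, 6 or 24 h at 37° C. Lytic HiBiT luminescence, background-subtracted, normalized to DMSO; 4-parameter fit gives DC50, Emax (residual protein) and IP (inflection point).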
For orientation: The HiBiT peptide binds its large partner to form an active luciferase.

Setting [1] is: A375.10 cells, BRAF V600E, 2 hours, inflection point, read-out: HiBiT-Degradation A375.10 BRAF 2 hours IP.
Where [2] appears, read: A375.10 cells, BRAF V600E, 2 hours, read-out: HiBiT-Degradation A375.10 BRAF 2 hours DC50.
Where [3] appears, read: A375.10 cells, BRAF V600E, 2 hours, residual protein remaining.

T1 sequence (P15056 whole entry V600E): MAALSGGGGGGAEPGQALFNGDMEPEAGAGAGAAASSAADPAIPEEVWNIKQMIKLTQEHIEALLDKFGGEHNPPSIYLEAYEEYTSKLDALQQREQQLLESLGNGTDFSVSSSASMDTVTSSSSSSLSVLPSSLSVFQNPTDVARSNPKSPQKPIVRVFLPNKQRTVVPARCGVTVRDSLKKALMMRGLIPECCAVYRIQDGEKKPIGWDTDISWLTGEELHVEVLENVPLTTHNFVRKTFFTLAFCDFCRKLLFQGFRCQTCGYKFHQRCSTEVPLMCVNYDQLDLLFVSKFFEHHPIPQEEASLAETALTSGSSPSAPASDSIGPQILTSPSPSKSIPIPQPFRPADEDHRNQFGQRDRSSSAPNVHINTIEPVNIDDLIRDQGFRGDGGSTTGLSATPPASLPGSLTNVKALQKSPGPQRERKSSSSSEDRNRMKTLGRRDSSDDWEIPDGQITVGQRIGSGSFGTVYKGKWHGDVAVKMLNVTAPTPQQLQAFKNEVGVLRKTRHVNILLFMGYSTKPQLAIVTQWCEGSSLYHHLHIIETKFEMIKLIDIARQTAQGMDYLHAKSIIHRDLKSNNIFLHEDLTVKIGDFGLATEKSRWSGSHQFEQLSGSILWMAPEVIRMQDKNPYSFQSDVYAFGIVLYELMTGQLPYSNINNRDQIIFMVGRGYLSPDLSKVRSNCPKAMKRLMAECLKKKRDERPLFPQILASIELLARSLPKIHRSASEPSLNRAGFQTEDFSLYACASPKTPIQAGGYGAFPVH
T1 sequence (Q96SW2 whole entry): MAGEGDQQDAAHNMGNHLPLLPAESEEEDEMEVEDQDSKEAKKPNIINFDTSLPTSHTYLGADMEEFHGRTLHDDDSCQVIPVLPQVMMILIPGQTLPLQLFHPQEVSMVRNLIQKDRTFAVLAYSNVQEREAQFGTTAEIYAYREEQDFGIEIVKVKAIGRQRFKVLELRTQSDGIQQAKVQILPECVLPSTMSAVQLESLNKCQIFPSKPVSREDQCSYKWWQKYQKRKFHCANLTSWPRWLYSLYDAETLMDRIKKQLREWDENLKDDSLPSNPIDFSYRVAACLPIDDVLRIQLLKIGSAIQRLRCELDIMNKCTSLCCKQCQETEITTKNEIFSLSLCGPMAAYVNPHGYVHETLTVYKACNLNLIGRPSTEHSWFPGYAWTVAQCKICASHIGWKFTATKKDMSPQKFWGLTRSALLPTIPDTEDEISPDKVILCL
T1 sequence (Q16531 whole entry partner): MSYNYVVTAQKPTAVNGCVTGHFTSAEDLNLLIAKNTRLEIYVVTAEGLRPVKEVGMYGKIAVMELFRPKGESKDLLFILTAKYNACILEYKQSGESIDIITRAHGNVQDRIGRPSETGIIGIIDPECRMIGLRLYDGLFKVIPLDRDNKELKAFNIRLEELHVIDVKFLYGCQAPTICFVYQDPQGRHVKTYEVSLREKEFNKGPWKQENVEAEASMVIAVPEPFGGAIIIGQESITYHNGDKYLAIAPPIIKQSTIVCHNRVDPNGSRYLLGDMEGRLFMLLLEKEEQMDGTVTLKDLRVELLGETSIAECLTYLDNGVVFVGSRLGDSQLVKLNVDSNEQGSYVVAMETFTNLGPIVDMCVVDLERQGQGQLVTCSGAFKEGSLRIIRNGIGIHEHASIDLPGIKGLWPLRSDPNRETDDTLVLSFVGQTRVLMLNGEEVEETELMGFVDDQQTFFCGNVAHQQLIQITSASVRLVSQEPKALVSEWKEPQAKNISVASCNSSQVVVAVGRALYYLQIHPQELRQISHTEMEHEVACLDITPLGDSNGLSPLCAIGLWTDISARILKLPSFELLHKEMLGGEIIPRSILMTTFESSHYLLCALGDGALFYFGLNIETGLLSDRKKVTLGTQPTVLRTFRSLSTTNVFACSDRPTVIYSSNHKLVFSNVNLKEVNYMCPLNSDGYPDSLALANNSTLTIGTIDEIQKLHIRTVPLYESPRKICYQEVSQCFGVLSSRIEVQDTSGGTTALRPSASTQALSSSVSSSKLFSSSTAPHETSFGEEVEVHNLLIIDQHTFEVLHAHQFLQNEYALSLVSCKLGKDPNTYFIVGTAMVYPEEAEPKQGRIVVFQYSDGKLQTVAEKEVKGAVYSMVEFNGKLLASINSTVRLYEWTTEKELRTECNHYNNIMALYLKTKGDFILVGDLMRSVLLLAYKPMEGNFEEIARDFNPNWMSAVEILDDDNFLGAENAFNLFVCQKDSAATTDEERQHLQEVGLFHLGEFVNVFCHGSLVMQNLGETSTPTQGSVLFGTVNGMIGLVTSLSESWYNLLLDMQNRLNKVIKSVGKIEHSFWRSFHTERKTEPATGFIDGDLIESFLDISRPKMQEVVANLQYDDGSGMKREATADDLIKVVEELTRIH

For the molecule `CN(CCO)S(=O)(=O)Nc1ccc(F)c(Oc2ccc3ncc([C@H]4COC5(CCN(C6CCC(c7cc8c(cc7F)c(N7CCC(=O)NC7=O)nn8C)CC6)CC5)C4)nc3c2)c1C#N` (single isomer, unassigned) [Compound 176], the GI50 in the experiment on A375-NRAS^Q61K cells (Homo sapiens, 96 h) was less than 1 µM. The Emax was 50 to 90% with A375-NRAS^Q61K cells (Homo sapiens, 96 h) and less than 50% on BRAF V600E (setting [3]). The DC50 on BRAF V600E (setting [1]) and on BRAF V600E (setting [2]) was less than 1 µM throughout.

On to `CCN(C)S(=O)(=O)Nc1ccc(F)c(Oc2ccc3ncn(C4CC5(CCN(C6CCC(c7cc8c(cc7F)c(N7CCC(=O)NC7=O)nn8C)CC6)CC5)C4)c(=O)c3c2)c1F` (single isomer, unassigned) [Compound 179, 3-[7-[4-[3-(2,4-dioxohexahydropyrimidin-1-yl)-5-fluoro-1-methyl-indazol-6-yl]cyclohexyl]-7-azaspiro[3.5]nonan-2-yl]-6-[3-[[ethyl(methyl)sulfamoyl]amino]-2,6-difluoro-phenoxy]-4-oxo-quinazoline], for which, in the experiment with A375-NRAS^Q61K cells, the GI50 was in the range of 1 to 10 µM; the “CTGlo A375.11 96 hours Emax” value is “** (<90% and >50%)”. For the same molecule, at BRAF V600E, the “HiBiT-Degradation A375.10 BRAF 2 hours Emax” value is “** (<90% and >50%)”. Besides, the DC50 on BRAF V600E (setting [1]) was less than 1 µM. For the same molecule, the DC50 on BRAF V600E (setting [2]) is less than 1 µM.

As to `CCN(C)S(=O)(=O)Nc1ccc(F)c(Oc2ccc3ncc(C4CC5(CCN(C6CCC(c7cc8c(cc7F)c(N7CCC(=O)NC7=O)nn8C)CC6)CC5)C4)nc3c2)c1C#N` (single isomer, unassigned) [Compound 181, 7-[2-cyano-3-[[ethyl(methyl)sulfamoyl]amino]-6-fluoro-phenoxy]-2-[7-[4-[3-(2,4-dioxohexahydropyrimidin-1-yl)-5-fluoro-1-methyl-indazol-6-yl]cyclohexyl]-7-azaspiro[3.5]nonan-2-yl]quinoxaline], in the experiment on A375-NRAS^Q61K cells, the GI50 is less than 1 µM and the “CTGlo A375.11 96 hours Emax” value is recorded as “*** (<=50%)”. The “HiBiT-Degradation A375.10 BRAF 2 hours Emax” value on BRAF V600E is given as “*** (<=50%)”. Also, at BRAF V600E (setting [1]), the DC50 is less than 1 µM. On BRAF V600E (setting [2]), the DC50 was less than 1 µM.

Take `CCN(C)S(=O)(=O)Nc1ccc(F)c(C(=O)c2ccc3ncn(C4CC5(CCN(C6CCC(c7cc8c(cc7F)c(N7CCC(=O)NC7=O)nn8C)CC6)CC5)C4)c(=O)c3c2)c1F` (single isomer, unassigned) [Compound 183, 3-[7-[4-[3-(2,4-dioxohexahydropyrimidin-1-yl)-5-fluoro-1-methyl-indazol-6-yl]cyclohexyl]-7-azaspiro[3.5]nonan-2-yl]-6-[3-[[ethyl(methyl)sulfamoyl]amino]-2,6-difluoro-benzoyl]-4-oxo-quinazoline]: in the experiment on A375-NRAS^Q61K cells, the GI50 lay within 1 to 10 µM; the “CTGlo A375.11 96 hours Emax” value was “** (<90% and >50%)”. Besides, the DC50 at BRAF V600E (setting [1]) is less than 1 µM. For the same molecule, at BRAF V600E (setting [2]), the DC50 was less than 1 µM. Also, the “HiBiT-Degradation A375.10 BRAF 2 hours Emax” value on BRAF V600E (setting [3]) is “*** (<=50%)”.

On to `CCN(C)S(=O)(=O)Nc1ccc(F)c(Oc2ccc3ncn(C4CC5(CCN(C6CCC(c7cc8c(cc7F)c(N7CCC(=O)NC7=O)nn8C)CC6F)CC5)C4)c(=O)c3c2)c1F` (single isomer, unassigned) [Compound 185], for which, in the experiment with A375-NRAS^Q61K cells, the GI50 is greater than 10 µM. Also, the “CTGlo A375.11 96 hours Emax” value in the experiment with A375-NRAS^Q61K cells was “** (<90% and >50%)”. Also, the figures for the DC50 on BRAF V600E (setting [1]) and on BRAF V600E (setting [2]) were less than 1 µM and greater than 10 µM, respectively. Moreover, the “HiBiT-Degradation A375.10 BRAF 2 hours Emax” value at BRAF V600E (setting [3]) is “** (<90% and >50%)”.

Consider `CCN(C)S(=O)(=O)Nc1ccc(F)c(Oc2ccc3ncn([C@H]4COC5(CCC(N6CCC(c7ccc(NC8CCC(=O)NC8=O)cc7F)C(F)(F)C6)CC5)C4)c(=O)c3c2)c1C#N` (single isomer, unassigned) [Compound 190], for which the GI50 in the experiment on A375-NRAS^Q61K cells (Homo sapiens, 96 h) fell in the range of 1 to 10 µM. The Emax with A375-NRAS^Q61K cells (Homo sapiens, 96 h) is less than 50%; on BRAF V600E (setting [3]) it was less than 50%. Further, the DC50 at BRAF V600E (setting [1]) and at BRAF V600E (setting [2]) was less than 1 µM each time.

Usually GI50 stands for the concentration that inhibits growth by half.
